Results reported in US20240024240A1 (priority 2020, published 2024).

Test: Sonication of magnesium oxide nanopowder with different ligands (functionalization, dispersion)
Assay type: physicochemical
Method: Different capping ligands were selected for the functionalization of magnesium oxide nanoparticles (see FIG. 5). This method is applicable to ligands whose anchoring groups forms stable magnesium complexes such as catecholates, salicylates, phosphates and phosphonates. Even if the affinity of each individual group for the particle surface is low, the multiplicity of anchoring groups provides a strong adsorption. For example, poly-aspartic and poly-glutamic acids were tested for the functionalization of magnesium oxide nanoparticles. In this procedure, the capping ligands were sonicated with the nanoparticles until a complete dispersion was obtained. The stability of the dispersion was evaluated by the absorption spectra of the obtained mixture.
As a starting point for the optimization of the procedure, the magnesium oxide nanoparticles (200 mg) were dispersed in 25 mL of 1% capping agent with continuous stirring at different times. The concentration of nanoparticles and capping agent in the dispersion mixture together with the incubation temperature was optimized to increase the stability of the dispersed nanoparticles. The excess of capping agent was removed by centrifugation and washing with water. […]

Compound	effect of ligand on magnesium oxide nanomaterial on sonication (magnesium oxide nanopowder sonicated in the presence of the ligand)	dispersion of magnesium oxide nanomaterial with ligand (preliminary results, FIG. 7)
NCCP(=O)(O)O [2-aminoethylphosphonic acid]	dissolved the nanomaterial	–
NCCCC(O)(P(=O)(O)O)P(=O)(O)O [alendronate]	–	good results
